Values after ≈ are worked out from the molar mass of the structure shown. Active and inactive are the calls of the source. No cut-off for these calls is given here.
Experiments:
[1] = biological target: Serine/threonine-protein kinase mTOR (Homo sapiens, UniProt P42345); assay: Inhibition of mTOR by DELFIA
[2] = Solubility at pH 7.4; assay type: physicochemical; details: buffer
[3] = Solubility at pH 3; assay type: physicochemical; details: buffer
[4] = Metabolic stability in human liver microsomes assessed as half life; assay type: ADME, Microsome
[5] = Metabolic stability in mouse liver microsomes assessed as half life; assay type: ADME, Microsome
[6] = biological target: Phosphatidylinositol 4,5-bisphosphate 3-kinase catalytic subunit alpha isoform (Homo sapiens, UniProt P42336)
MDA-MB-361 [7] = assay: cells; details: Homo sapiens, MDA-MB-361, 72 h
PC-3 = assay: cells; details: Homo sapiens, PC-3, 72 h
cells = details: Homo sapiens, MDA-MB-361, 4 h
in vitro = details: rat
[8] = biological target: Phosphatidylinositol 4,5-bisphosphate 3-kinase catalytic subunit gamma isoform (Homo sapiens, UniProt P48736); assay: Inhibition of human PI3Kgamma by fluorescence polarization format assay
Mus musculus [9] = assay: Antitumor activity against human MDA-MB-361 cells implanted in mouse assessed as suppression of S6 phosphorylation at 50 mg/kg, iv after 8 hrs; assay type: functional, organism-based; design: dose 50 mg/kg
Mus musculus [10] = assay: Antitumor activity against human MDA-MB-361 cells implanted in mouse assessed as […] of cleavage of PARP at 50 mg/kg, iv after 8 hrs; assay type: functional, organism-based; design: dose 50 mg/kg
Mus musculus [11] = assay: Antitumor activity against human MDA-MB-361 cells implanted in mouse assessed as suppression of Akt T308 phosphorylation at 100 mg/kg, iv after 8 hrs; assay type: functional, organism-based; design: dose 100 mg/kg
Mus musculus [12] = assay: Antitumor activity against human MDA-MB-361 cells implanted in mouse assessed as suppression of Akt S473 phosphorylation at 100 mg/kg, iv after 8 hrs; assay type: functional, organism-based; design: dose 100 mg/kg
Mus musculus [13] = assay: Antitumor activity against human MDA-MB-361 cells implanted in mouse assessed as suppression of P70S6K phosphorylation at 100 mg/kg, iv after 8 hrs; assay type: functional, organism-based; design: dose 100 mg/kg
Mus musculus [14] = assay: Antitumor activity against human MDA-MB-361 cells implanted in mouse assessed as suppression of S6 phosphorylation at 100 mg/kg, iv after 8 hrs; assay type: functional, organism-based; design: dose 100 mg/kg
Mus musculus [15] = assay: Antitumor activity against human MDA-MB-361 cells implanted in mouse assessed as […] of cleavage of PARP at 100 mg/kg, iv after 8 hrs; assay type: functional, organism-based; design: dose 100 mg/kg
[16] = biological target: Phosphatidylinositol 4,5-bisphosphate 3-kinase catalytic subunit beta isoform (Homo sapiens, UniProt P42338); assay: Inhibition of PI3Kbeta
Mus musculus [17] = assay: Antitumor activity against human MDA-MB-361 cells implanted in mouse assessed as suppression of Akt T308 phosphorylation at 50 mg/kg, iv after 8 hrs; assay type: functional, organism-based; design: dose 50 mg/kg
Mus musculus [18] = assay: Antitumor activity against human MDA-MB-361 cells implanted in mouse assessed as suppression of Akt S473 phosphorylation at 50 mg/kg, iv after 8 hrs; assay type: functional, organism-based; design: dose 50 mg/kg
Mus musculus [19] = assay: Antitumor activity against human MDA-MB-361 cells implanted in mouse assessed as suppression of P70S6K phosphorylation at 50 mg/kg, iv after 8 hrs; assay type: functional, organism-based; design: dose 50 mg/kg
[20] = Plasma concentration in human MDA-MB-361 cells implanted mouse at 50 mg/kg, iv after 8 hrs; assay type: ADME, organism-based; design: dose 50 mg/kg, route intravenous
[21] = Drug level in human MDA-MB-361 cells implanted mouse tumor at 50 mg/kg, iv after 8 hrs; assay type: ADME, organism-based, Neoplasm; design: dose 50 mg/kg, route intravenous; details: read-out: Drug uptake
MDA-MB-361 [22] = assay: Antitumor activity against human MDA-MB-361 cells implanted in mouse assessed as inhibition of regrowth at until day 70 at 100 mg/kg, iv once daily for 5 days; assay type: functional, organism-based; design: dose 100 mg/kg
MDA-MB-361 [23] = assay: Antitumor activity against human MDA-MB-361 cells implanted in mouse assessed as inhibition of regrowth at until day 16 and 20 at 25 mg/kg, iv once daily for 5 days; assay type: functional, organism-based; design: dose 25 mg/kg
MDA-MB-361 [24] = assay: Antitumor activity against human MDA-MB-361 cells implanted in mouse assessed as inhibition of regrowth at until day 16 and 20 at 50 mg/kg, iv once daily for 5 days; assay type: functional, organism-based; design: dose 50 mg/kg
Mus musculus [25] = species: Mus musculus; assay: Toxicity in mouse assessed as weight loss; assay type: organism-based; details: in vivo
[26] = Inhibition of Akt T308 phosphorylation in human MDA-MB-361 cells by Western blotting; assay type: cell-based

Phosphatidylinositol 4,5-bisphosphate 3-kinase catalytic subunit gamma isoform, sequence (P48736 whole entry, canonical isoform): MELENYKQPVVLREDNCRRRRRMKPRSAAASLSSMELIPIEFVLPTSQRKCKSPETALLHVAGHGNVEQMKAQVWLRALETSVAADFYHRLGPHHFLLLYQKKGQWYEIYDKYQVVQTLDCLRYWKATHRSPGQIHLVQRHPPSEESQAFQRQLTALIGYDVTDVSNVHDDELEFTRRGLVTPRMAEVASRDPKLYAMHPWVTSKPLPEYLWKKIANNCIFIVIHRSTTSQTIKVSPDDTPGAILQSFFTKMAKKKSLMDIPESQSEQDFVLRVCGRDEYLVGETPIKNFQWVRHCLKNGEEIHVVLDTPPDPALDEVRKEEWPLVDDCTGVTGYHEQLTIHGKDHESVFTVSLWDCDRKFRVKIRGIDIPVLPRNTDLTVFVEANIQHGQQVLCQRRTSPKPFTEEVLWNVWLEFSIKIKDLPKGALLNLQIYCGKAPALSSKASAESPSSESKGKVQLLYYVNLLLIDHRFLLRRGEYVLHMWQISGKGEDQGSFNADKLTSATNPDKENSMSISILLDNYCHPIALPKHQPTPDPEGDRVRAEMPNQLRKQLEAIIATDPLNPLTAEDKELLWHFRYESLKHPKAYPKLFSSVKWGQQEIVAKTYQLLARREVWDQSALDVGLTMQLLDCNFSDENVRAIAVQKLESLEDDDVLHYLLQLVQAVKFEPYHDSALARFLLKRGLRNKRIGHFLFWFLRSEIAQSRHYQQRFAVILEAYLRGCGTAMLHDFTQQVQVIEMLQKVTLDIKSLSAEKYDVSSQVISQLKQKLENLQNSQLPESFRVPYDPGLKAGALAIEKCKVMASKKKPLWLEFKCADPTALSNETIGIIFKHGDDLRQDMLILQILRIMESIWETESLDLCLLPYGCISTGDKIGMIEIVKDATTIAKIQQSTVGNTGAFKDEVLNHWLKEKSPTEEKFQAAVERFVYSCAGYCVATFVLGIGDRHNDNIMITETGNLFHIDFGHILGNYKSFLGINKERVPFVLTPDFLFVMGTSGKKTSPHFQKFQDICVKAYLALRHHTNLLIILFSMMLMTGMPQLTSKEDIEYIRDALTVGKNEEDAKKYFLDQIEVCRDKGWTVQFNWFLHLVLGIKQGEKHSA
Phosphatidylinositol 4,5-bisphosphate 3-kinase catalytic subunit alpha isoform, sequence (P42336 whole entry, canonical isoform): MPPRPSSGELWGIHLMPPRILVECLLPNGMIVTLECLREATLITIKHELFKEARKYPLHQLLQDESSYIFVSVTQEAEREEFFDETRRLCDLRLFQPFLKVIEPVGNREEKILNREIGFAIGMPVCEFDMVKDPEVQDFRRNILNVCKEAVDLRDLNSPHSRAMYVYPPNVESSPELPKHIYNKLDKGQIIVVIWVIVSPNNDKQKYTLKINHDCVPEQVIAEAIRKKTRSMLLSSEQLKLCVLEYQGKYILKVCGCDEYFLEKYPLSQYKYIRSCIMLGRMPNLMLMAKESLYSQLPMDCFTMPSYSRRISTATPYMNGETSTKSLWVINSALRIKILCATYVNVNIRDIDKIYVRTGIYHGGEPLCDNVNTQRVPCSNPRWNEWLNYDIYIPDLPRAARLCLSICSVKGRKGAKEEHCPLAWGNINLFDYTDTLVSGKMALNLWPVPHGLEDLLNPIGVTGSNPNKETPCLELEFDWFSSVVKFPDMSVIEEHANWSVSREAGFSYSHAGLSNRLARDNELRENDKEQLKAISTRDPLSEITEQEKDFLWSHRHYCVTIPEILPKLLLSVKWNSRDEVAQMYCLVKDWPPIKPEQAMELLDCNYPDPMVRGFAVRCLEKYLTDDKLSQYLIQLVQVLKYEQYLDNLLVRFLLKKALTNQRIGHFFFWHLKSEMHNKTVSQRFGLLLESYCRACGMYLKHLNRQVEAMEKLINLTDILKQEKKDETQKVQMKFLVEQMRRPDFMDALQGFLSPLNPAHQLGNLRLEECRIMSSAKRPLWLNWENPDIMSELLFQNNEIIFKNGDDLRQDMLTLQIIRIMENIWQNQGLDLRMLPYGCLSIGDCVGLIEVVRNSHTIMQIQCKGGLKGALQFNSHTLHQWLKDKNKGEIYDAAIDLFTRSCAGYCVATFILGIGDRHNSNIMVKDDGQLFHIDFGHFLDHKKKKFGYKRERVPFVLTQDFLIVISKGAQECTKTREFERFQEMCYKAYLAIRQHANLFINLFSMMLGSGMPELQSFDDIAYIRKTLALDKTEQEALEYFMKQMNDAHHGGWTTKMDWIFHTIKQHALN
Phosphatidylinositol 4,5-bisphosphate 3-kinase catalytic subunit beta isoform, sequence (P42338 whole entry, canonical isoform): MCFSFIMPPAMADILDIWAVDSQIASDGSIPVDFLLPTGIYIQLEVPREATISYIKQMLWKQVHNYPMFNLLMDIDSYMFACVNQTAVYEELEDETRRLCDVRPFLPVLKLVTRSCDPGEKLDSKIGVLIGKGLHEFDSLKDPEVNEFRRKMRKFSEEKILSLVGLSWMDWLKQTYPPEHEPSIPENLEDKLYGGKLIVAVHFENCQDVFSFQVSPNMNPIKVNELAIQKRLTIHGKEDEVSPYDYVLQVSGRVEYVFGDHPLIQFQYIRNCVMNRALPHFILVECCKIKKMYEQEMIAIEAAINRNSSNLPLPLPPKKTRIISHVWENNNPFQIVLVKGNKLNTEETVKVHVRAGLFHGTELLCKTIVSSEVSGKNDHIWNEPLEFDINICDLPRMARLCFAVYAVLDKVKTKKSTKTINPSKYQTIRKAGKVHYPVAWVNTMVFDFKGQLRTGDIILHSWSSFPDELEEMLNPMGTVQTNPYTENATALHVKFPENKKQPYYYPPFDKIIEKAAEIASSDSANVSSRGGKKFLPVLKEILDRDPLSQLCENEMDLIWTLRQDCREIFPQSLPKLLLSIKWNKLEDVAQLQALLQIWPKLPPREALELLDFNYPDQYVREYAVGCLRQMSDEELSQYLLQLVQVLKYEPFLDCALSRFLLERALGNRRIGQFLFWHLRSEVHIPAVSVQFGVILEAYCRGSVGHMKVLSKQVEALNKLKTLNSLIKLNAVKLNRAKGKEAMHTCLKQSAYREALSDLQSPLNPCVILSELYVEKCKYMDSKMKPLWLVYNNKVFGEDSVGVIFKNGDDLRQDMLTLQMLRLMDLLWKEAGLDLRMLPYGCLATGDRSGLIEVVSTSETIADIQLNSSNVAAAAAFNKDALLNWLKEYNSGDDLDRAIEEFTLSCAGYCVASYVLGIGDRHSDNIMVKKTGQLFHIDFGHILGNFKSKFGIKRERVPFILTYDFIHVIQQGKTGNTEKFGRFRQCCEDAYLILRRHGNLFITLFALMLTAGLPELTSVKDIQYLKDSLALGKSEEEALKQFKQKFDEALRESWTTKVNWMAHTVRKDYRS

IC50 [1] | solubility [2] | IC50 [6] | IC50 (MDA-MB-361 [7]) | IC50 (PC-3) | IC50 (cells) | half-life (in vitro; liver microsomes) | Structure (SMILES) | further results
2.2 nM | 100 µg/mL (≈ 175 µM) | 2.4 nM | 41 nM | 116 nM | 44 nM | 26 min | CCn1nnc2c(N3CCOCC3)nc(-c3ccc(NC(=O)Nc4ccc(C(=O)NCCCN(C)C)cc4)cc3)nc21 | solubility [3]: 100 µg/mL (≈ 175 µM); half-life [4]: 30 min; half-life [5]: 26 min
1.1 nM | 1 µg/mL (≈ 1.63 µM) | 3.2 nM | 24 nM | 67 nM | 74 nM | 17 min | CCn1nnc2c(N3CCOCC3)nc(-c3ccc(NC(=O)Nc4ccc(C(=O)NCCN5CCN(C)CC5)cc4)cc3)nc21 | solubility [3]: 100 µg/mL (≈ 163 µM); half-life [5]: 28 min
0.56 nM | 1 µg/mL (≈ 1.94 µM) | 3 nM | 29 nM | 33 nM | 27 nM | – | CCNC(=O)c1ccc(NC(=O)Nc2ccc(-c3nc(N4CCOCC4)c4nnn(CC)c4n3)cc2)cc1 | IC50 [8]: 17.2 nM; half-life [4]: > 30 min; half-life [5]: 29 min; half-life (in vitro; microsomes): 16 min
0.39 nM | 6 µg/mL (≈ 12.3 µM) | 2.4 nM | 28 nM | 65 nM | – | – | CCn1nnc2c(N3CCOCC3)nc(-c3ccc(NC(=O)Nc4ccc(C(N)=O)cc4)cc3)nc21 | IC50 [8]: 12.2 nM; half-life (in vitro; microsomes): 21 min
0.63 nM | 18 µg/mL (≈ 40.4 µM) | 5 nM | 35 nM | 49 nM | – | 27 min | CCn1nnc2c(N3CCOCC3)nc(-c3ccc(NC(=O)Nc4ccncc4)cc3)nc21 | –
1.7 nM | – | – | – | – | 5 nM | 15 min | CCn1nnc2c(N3CCOCC3)nc(-c3ccc(NC(=O)Nc4ccc(C(=O)N5CCN(C)CC5)cc4)cc3)nc21 | Activity (Mus musculus [9]): Active; Activity (Mus musculus [10]): Active; Activity (Mus musculus [11]): Active; Activity (Mus musculus [12]): Active; Activity (Mus musculus [13]): Active; Activity (Mus musculus [14]): Active; Activity (Mus musculus [15]): Active; IC50 [16]: 7 nM; solubility [3]: 100 µg/mL (≈ 175 µM); half-life [4]: > 30 min; half-life [5]: > 30 min; Activity (Mus musculus [17]): Active; Activity (Mus musculus [18]): Active; Activity (Mus musculus [19]): Active; concentration at 8 h [20]: 525 ng/mL; concentration at 8 h [21]: 2220 ng/mL; Activity (MDA-MB-361 [22]): Active; Activity (MDA-MB-361 [23]): inactive; Activity (MDA-MB-361 [24]): inactive; Activity (Mus musculus [25]): Non-toxic
3.05 nM | – | – | 73 nM | 149 nM | – | 15 min | O=C(Nc1ccc(-c2nc(N3CCOCC3)c3nnn(C4CC4)c3n2)cc1)Nc1cccs1 | –
0.57 nM | 1 µg/mL (≈ 2.19 µM) | 10.5 nM | 67 nM | 90 nM | – | 24 min | O=C(Nc1ccc(-c2nc(N3CCOCC3)c3nnn(C4CC4)c3n2)cc1)Nc1cccnc1 | IC50 [8]: 48.5 nM
0.31 nM | – | 3.6 nM | 38 nM | 57 nM | – | 9 min | CC(C)n1nnc2c(N3CCOCC3)nc(-c3ccc(NC(=O)Nc4ccc(C(N)=O)cc4)cc3)nc21 | –
0.84 nM | – | – | 31 nM | 70 nM | – | 21 min | O=C(Nc1ccncc1)Nc1ccc(-c2nc(N3CCOCC3)c3nnn(C4CC4)c3n2)cc1 | –
3 nM | 1 µg/mL (≈ 2.22 µM) | – | 81 nM | 133 nM | – | 10 min | CCn1nnc2c(N3CCOCC3)nc(-c3ccc(NC(=O)Nc4cccs4)cc3)nc21 | –
0.51 nM | – | – | 54 nM | 67 nM | – | > 30 min | CC(C)n1nnc2c(N3CCOCC3)nc(-c3ccc(NC(=O)Nc4ccncc4)cc3)nc21 | –
0.32 nM | – | 3.5 nM | < 30 nM | 55 nM | – | – | CC(C)n1nnc2c(N3CCOCC3)nc(-c3ccc(NC(=O)Nc4ccc(CO)cc4)cc3)nc21 | IC50 [8]: 24.8 nM; IC50 [26]: 8 nM
0.75 nM | 1 µg/mL (≈ 1.94 µM) | 1.4 nM | 16 nM | 17 nM | 8 nM | 14 min | CCn1nnc2c(N3CCOCC3)nc(-c3ccc(NC(=O)Nc4ccc(C(=O)N(C)C)cc4)cc3)nc21 | half-life [4]: > 30 min
